Laboratory results from PubChem BioAssay AID1919010 (Molecular Pharmacology Branch, DTP, NCI, 2023).
pIC50: −log10 of the molar value. Where “and” joins values, the source holds several entries; their conditions need not be identical. Identical values can stand only once.

Test system: Hs578T complex spheroid growth, percent test/control
Experiment: Anticancer human tumor Hs578T cell line growth inhibition [AhR];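 also: luminescent viability signal as a proxy for spheroid growth; spheroids exposed to agents for one week after three days of growth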
Settings: for viability, T/C: stronger effect = lower value
Outline: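 Spheroids combined tumor cells with HUVEC endothelial cells and human MSCs as stroma. AhR antagonists were paired with standard or investigational drugs, each dosed in half-log steps down from near clinical Cmax, or from 10 microM where Cmax was unknown.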

[1] = curve of first compound, second compound 0.1 µM
[2] = curve of first compound, second compound 0.316 µM
[3] = curve of first compound, second compound 1 µM
[4] = curve of first compound, second compound 3.16 µM
[5] = curve of first compound, second compound 10 µM
[6] = second compound 0.1 µM, first compound 0.0316 µM
[7] = second compound 0.1 µM, first compound 0.1 µM
[8] = second compound 0.1 µM, first compound 0.316 µM
[9] = second compound 0.1 µM, first compound 1 µM
[10] = second compound 0.316 µM, first compound 0.0316 µM
[11] = second compound 0.316 µM, first compound 0.1 µM
[12] = second compound 0.316 µM, first compound 0.316 µM
[13] = second compound 0.316 µM, first compound 1 µM
[14] = second compound 1 µM, first compound 0.0316 µM
[15] = second compound 1 µM, first compound 0.1 µM
[16] = second compound 1 µM, first compound 0.316 µM
[17] = second compound 1 µM, first compound 1 µM
[18] = second compound 3.16 µM, first compound 0.0316 µM
[19] = second compound 3.16 µM, first compound 0.1 µM
[20] = second compound 3.16 µM, first compound 0.316 µM
[21] = second compound 3.16 µM, first compound 1 µM
[22] = second compound 10 µM, first compound 0.0316 µM
[23] = second compound 10 µM, first compound 0.1 µM
[24] = second compound 10 µM, first compound 0.316 µM
[25] = second compound 10 µM, first compound 1 µM
[26] = second compound 0.1 µM, first compound 3.16 µM
[27] = second compound 0.1 µM, first compound 10 µM
[28] = second compound 0.316 µM, first compound 3.16 µM
[29] = second compound 0.316 µM, first compound 10 µM
[30] = second compound 1 µM, first compound 3.16 µM
[31] = second compound 1 µM, first compound 10 µM
[32] = second compound 3.16 µM, first compound 3.16 µM
[33] = second compound 3.16 µM, first compound 10 µM
[34] = second compound 10 µM, first compound 3.16 µM
[35] = second compound 10 µM, first compound 10 µM

Structure (SMILES)	pIC50 [1]	pIC50 [2]	pIC50 [3]	pIC50 [4]	pIC50 [5]	viability, T/C [6] [%]	viability, T/C [7] [%]	viability, T/C [8] [%]	viability, T/C [9] [%]	viability, T/C [10] [%]	viability, T/C [11] [%]	viability, T/C [12] [%]	viability, T/C [13] [%]	viability, T/C [14] [%]	viability, T/C [15] [%]	viability, T/C [16] [%]	viability, T/C [17] [%]	viability, T/C [18] [%]	viability, T/C [19] [%]	viability, T/C [20] [%]	further results
Nc1ncn(C2CC(O)C(CO)O2)c(=O)n1 (centres undefined) + CC(CO)NC(=O)c1cc(-c2ccc(Cl)cc2)nn(-c2cnn(C)c2)c1=O	< 6.00	< 6.00	< 6.00	< 6.00	< 6.00	118	107	103	95.5	110	114	120	109	103	102	107	96	117	114	101	viability, T/C (second compound 0.1 µM, first compound 0.00316 µM): 109%; viability, T/C (second compound 0.1 µM, first compound 0.01 µM): 107%; viability, T/C (second compound 0.316 µM, first compound 0.00316 µM): 106%; viability, T/C (second compound 0.316 µM, first compound 0.01 µM): 114%; viability, T/C (second compound 1 µM, first compound 0.00316 µM): 117%; viability, T/C (second compound 1 µM, first compound 0.01 µM): 108%; viability, T/C (second compound 3.16 µM, first compound 0.00316 µM): 109%; viability, T/C (second compound 3.16 µM, first compound 0.01 µM): 109%; viability, T/C [21]: 97%; viability, T/C (second compound 10 µM, first compound 0.00316 µM): 96.9%; viability, T/C (second compound 10 µM, first compound 0.01 µM): 100%; viability, T/C [22]: 105%; viability, T/C [23]: 99.6%; viability, T/C [24]: 92.9%; viability, T/C [25]: 100%
O=C(c1cc(Cc2n[nH]c(=O)c3ccccc23)ccc1F)N1CCN(C(=O)C2CC2)CC1 + CC(CO)NC(=O)c1cc(-c2ccc(Cl)cc2)nn(-c2cnn(C)c2)c1=O	< 5.00	< 5.00	< 5.00	< 5.00	< 5.00	113	112	109	104	110	115	114	104	106	113	121	108	122	124	126	viability, T/C [26]: 96.3%; viability, T/C [27]: 93.5%; viability, T/C [28]: 98.9%; viability, T/C [29]: 89.7%; viability, T/C [30]: 110%; viability, T/C [31]: 94.7%; viability, T/C [21]: 105%; viability, T/C [32]: 106%; viability, T/C [33]: 88.5%; viability, T/C [22]: 96.2%; viability, T/C [23]: 107%; viability, T/C [24]: 112%; viability, T/C [25]: 101%; viability, T/C [34]: 99.9%; viability, T/C [35]: 86.9%
O=C(C=Cc1cccc(S(=O)(=O)Nc2ccccc2)c1)NO	–	–	–	–	–	–	–	–	–	–	–	–	–	–	–	–	–	–	–	–	viability, T/C (compound 0.0316 µM): 95.1% and 99% and 103%; viability, T/C (compound 0.1 µM): 109% and 96.7% and 106%; viability, T/C (compound 0.316 µM): 91.4% and 95.8% and 88.1%; viability, T/C (compound 1 µM): 73.5% and 71.2% and 72.4%; viability, T/C (compound 3.16 µM): 49.8% and 26% and 40.5%; viability, T/C (compound 10 µM): 1.74% and 0.77% and 1.35%; pIC50 (curve of compound): 5.54 and 5.76 and 5.65
CC[C@@]1(O)C(=O)OCc2c1cc1n(c2=O)Cc2cc3c(CN(C)C)c(O)ccc3nc2-1	–	–	–	–	–	–	–	–	–	–	–	–	–	–	–	–	–	–	–	–	viability, T/C (compound 0.000316 µM): 94.7% and 97.6% and 107%; viability, T/C (compound 0.001 µM): 106% and 98.2% and 103%; viability, T/C (compound 0.00316 µM): 105% and 90.3% and 95.3%; viability, T/C (compound 0.01 µM): 96.5% and 72.5% and 96.3%; viability, T/C (compound 0.0316 µM): 76.8% and 64.2% and 77.9%; viability, T/C (compound 0.1 µM): 69.3% and 71.8% and 68.2%; pIC50 (curve of compound): < 7.00
Nc1ccccc1NC(=O)c1ccc(CNC(=O)OCc2cccnc2)cc1 + CC(CO)NC(=O)c1cc(-c2ccc(Cl)cc2)nn(-c2cnn(C)c2)c1=O	5.79	5.77	5.78	5.76	5.90	124	122	108	68.3	111	118	111	65.8	121	118	112	64.3	115	118	109	viability, T/C [26]: 24%; viability, T/C [27]: 1.8%; viability, T/C [28]: 30%; viability, T/C [29]: 1.83%; viability, T/C [30]: 29.6%; viability, T/C [31]: 2.16%; viability, T/C [21]: 70.9%; viability, T/C [32]: 25.9%; viability, T/C [33]: 2.04%; viability, T/C [22]: 111%; viability, T/C [23]: 106%; viability, T/C [24]: 97.2%; viability, T/C [25]: 58.2%; viability, T/C [34]: 16%; viability, T/C [35]: 0.84%
